Like-named read-outs stand apart in the source and are kept apart here.
Molecular target: α-glucosidase enzyme (type 1 from Baker's yeast) (Saccharomyces cerevisiae, UniProt P53341)
Assay: α-Glucosidase inhibitory assay (p-nitrophenyl-α-D-glucopyranoside substrate, absorbance at 405 nm)
Format: biochemical
Conditions: for inhibition at 1000 µg/mL: Concentration: 1 mg/mL, Means ± SD, n = 3; for IC50: α-glucosidase inhibition
Description: The method of α-glucosidase inhibitory assay was adopted from Ahmad et al. with minor modification. The plant samples (extract/fraction/compound) were prepared in 5% DMSO at a concentration of 1000 μg/mL. A series of dilutions for each sample were prepared to give concentrations of 1000, 500, 250, 125, 62.5 and 31.25 μg/mL. Then, about 10 μL of sample, 20 μL of α-glucosidase enzyme solution (type 1 from Baker’s yeast), phosphate buffer saline (40 μL at pH 6.5) and deionized water (20 μL) were mixed in a 96-well plate. The mixture was incubated at 37 °C. After 10 min, 10 μL of 20 mM p-nitrophenyl-α-D-glucopyranoside solution was added into the mixture and absorbance at time 0 min was measured by the spectrophotometer (λ = 405 nm). Then, the reaction mixture was incubated at 37 °C for 30 min and the absorbance was measured. […] Experiments were performed in triplicates with three independent experiments. The percentage inhibitory activity was calculated using the following equation: (1) Inhibition (%)=(A30 min–A0 min) control – (A30 min – A0 min) sample × 100/(A30 min–A0 min) control where A is the absorbance of mixture measured at 405 nm.

Chain of α-glucosidase enzyme (type 1 from Baker's yeast) (P53341 whole entry): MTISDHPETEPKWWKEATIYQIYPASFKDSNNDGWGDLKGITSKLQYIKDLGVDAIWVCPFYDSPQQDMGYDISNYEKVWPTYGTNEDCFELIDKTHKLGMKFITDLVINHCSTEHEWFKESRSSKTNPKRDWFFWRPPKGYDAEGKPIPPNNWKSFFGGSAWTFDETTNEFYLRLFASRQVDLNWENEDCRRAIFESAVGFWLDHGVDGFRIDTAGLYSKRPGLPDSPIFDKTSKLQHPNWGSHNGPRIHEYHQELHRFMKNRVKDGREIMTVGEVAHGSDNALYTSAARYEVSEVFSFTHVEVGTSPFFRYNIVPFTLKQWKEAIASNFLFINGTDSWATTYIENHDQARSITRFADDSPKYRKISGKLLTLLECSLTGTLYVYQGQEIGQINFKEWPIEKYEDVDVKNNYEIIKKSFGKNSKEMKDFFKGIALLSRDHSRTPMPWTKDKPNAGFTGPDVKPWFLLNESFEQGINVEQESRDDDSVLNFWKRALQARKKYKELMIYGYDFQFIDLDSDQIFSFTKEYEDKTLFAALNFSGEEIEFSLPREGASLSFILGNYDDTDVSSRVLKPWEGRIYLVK

| SMILES | inhibition at 1000 µg/mL [%] | IC50 (dilution series 1000-31.25 μg/mL, read-out: IC50 (μg/mL) (converted)) [mM] | IC50 (same IC50 in molar units, read-out: IC50) [mM] |
| --- | --- | --- | --- |
| O=C(O)c1ccc(O)cc1O [2,4-DHBA, 2,4-Dihydroxybenzoic acid] | 78.8 ± 0.4 | 3.56 | 3.56 |
| C[C@H]1O[C@H](O[C@H]2[C@H](O)[C@@H](O)[C@@H](O[C@H]3[C@H](O)[C@@H](O)C(O)O[C@@H]3CO)O[C@@H]2CO)[C@H](O)[C@@H](O)[C@@H]1N[C@H]1C=C(CO)[C@@H](O)[C@H](O)[C@H]1O (stereo partly shown) [Acarbose, reference compound] | 90.9 ± 2.7 |  |  |
| COC(=O)C1=CO[C@@H](O[C@@H]2O[C@H](CO)[C@@H](O)[C@H](O)[C@H]2O)[C@@H]2[C@@H](C)[C@@H](O)C[C@H]12 [Loganin] | 44.9 ± 0.7 |  |  |
| O=c1c(O)c(-c2ccc(O)c(O)c2)oc2cc(O)cc(O)c12 [Quercetin] | 84.5 ± 0.6 |  |  |
| COc1cc2ccc(=O)oc2cc1O [Scopoletin] | 34.5 ± 0.4 |  |  |

Reference: paper PMC6274048, “Chemical Constituents of Malaysian U. cordata var. ferruginea and Their in Vitro α-Glucosidase Inhibitory Activities” (Molecules, 2016)
